The test system of the experiment is L1210 leukemia ip in BDF1 mice, survival T/C. Description: NCI In Vivo Anticancer Drug Screen. Data for tumor model L1210 Leukemia (intraperitoneal) in B6D2F1 (BDF1) mice. As to conditions: endpoint: mean survival time, higher = longer survival. In outline:
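Mice bearing the transplanted tumor received compound or vehicle. Survival of the treated group was divided by that of the vehicle-treated control group to give the ratio.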

[1] abbreviates: dose: 100.0 mg/kg/injection, schedule: Q04DX003 (ip), vehicle: saline with Tween-80.
Setting [2] is: dose: 200.0 mg/kg/injection, schedule: Q04DX003 (ip), vehicle: saline with Tween-80.
Setting [3] is: dose: 400.0 mg/kg/injection, schedule: Q04DX003 (ip), vehicle: saline with Tween-80.
Setting [4] is: dose: 50.0 mg/kg/injection, schedule: Q04DX002 (ip), vehicle: saline with Tween-80.
The mark [5] stands for this setting: dose: 100.0 mg/kg/injection, schedule: Q04DX002 (ip), vehicle: saline with Tween-80.
Setting [6] is: dose: 100.0 mg/kg/injection, schedule: Q01DX001 (ip), vehicle: saline.
[7] abbreviates: dose: 200.0 mg/kg/injection, schedule: Q01DX001 (ip), vehicle: saline.
Setting [8] is: dose: 200.0 mg/kg/injection, schedule: Q04DX002 (ip), vehicle: saline with Tween-80.
Where [9] appears, read: dose: 400.0 mg/kg/injection, schedule: Q01DX001 (ip), vehicle: saline.
The mark [10] stands for this setting: dose: 50.0 mg/kg/injection, schedule: Q01DX001 (ip), vehicle: saline.

Here are results for 19 compounds from PubChem BioAssay AID248 (DTP/NCI, 2004).

Several values for one entry are separate records, joined by “and”; a condition that tells them apart may be missing. Equal entries are not always repeated. Toxic doses and inconclusive results are not listed. Peptide text beside a SMILES is read from it. * marks the point of attachment. For = O=C*

For `COC(=O)C(CC(C)C)NC(=O)C(Cc1ccc(O)cc1)NC=O` (stereo not drawn) (For-Tyr-Leu-OMe; configuration not given here), the T/C runs as follows: (dose: 100.0 mg/kg/injection, schedule: Q01DX009 (ip), vehicle: saline with Tween-80) 94 % of control; under setting [1], 110 % of control; (dose: 200.0 mg/kg/injection, schedule: Q01DX009 (ip), vehicle: saline with Tween-80) 95 % of control; under setting [2], 102 % of control; (dose: 400.0 mg/kg/injection, schedule: Q01DX009 (ip), vehicle: saline with Tween-80) 92 % of control; under setting [3], 96 % of control.
For `CCCCOP(=O)(OCCCC)N1CCCCC1`, the T/C reads like this: (dose: 25.0 mg/kg/injection, schedule: Q04DX002 (ip), vehicle: saline with Tween-80) 94 % of control; under setting [4], 108 % of control; under setting [5], 91 % of control.
On to `CCOC(=O)CCC(C)C(C)=O` (centres undefined), for which the T/C is, setting by setting: under setting [4], 108 % of control; under setting [6], 109 % of control; under setting [5], 103 % of control; under setting [7], 98 % of control; under setting [8], 108 % of control; under setting [9], 98 % of control.
As to `NNC(=O)CNc1ccc(F)c(Cl)c1`, the T/C reads like this: (dose: 25.0 mg/kg/injection, schedule: Q04DX002 (ip), vehicle: saline + alcohol) 113 % of control; (dose: 50.0 mg/kg/injection, schedule: Q04DX002 (ip), vehicle: saline + alcohol) 95 % of control; (dose: 100.0 mg/kg/injection, schedule: Q04DX002 (ip), vehicle: saline + alcohol) 98 % of control and 123 % of control.
Take `O=[N+]([O-])c1cc(S(=O)(=O)F)cc(Cl)c1O`: the T/C is 97 % of control (dose: 100.0 mg/kg/injection, schedule: Q01DX009 (ip), vehicle: Klucel (hydroxypropylcellulose) (HPC)) and 89 % of control (dose: 200.0 mg/kg/injection, schedule: Q01DX009 (ip), vehicle: Klucel (hydroxypropylcellulose) (HPC)).
Consider `c1ccc(Nc2nc(Nc3ccccc3)nc(Nc3ccccc3)n2)cc1`, for which the T/C by setting is: (dose: 25.0 mg/kg/injection, schedule: Q04DX002 (ip), vehicle: Klucel (hydroxypropylcellulose) (HPC)) 92 % of control; (dose: 50.0 mg/kg/injection, schedule: Q04DX002 (ip), vehicle: Klucel (hydroxypropylcellulose) (HPC)) 92 % of control; (dose: 100.0 mg/kg/injection, schedule: Q04DX002 (ip), vehicle: Klucel (hydroxypropylcellulose) (HPC)) 88 % of control.
In the case of `NC(=O)CSc1nnc(SCC(N)=O)s1`, the T/C reads like this: (dose: 100.0 mg/kg/injection, schedule: Q04DX003 (ip), vehicle: Klucel (hydroxypropylcellulose) (HPC)) 106 % of control; (dose: 200.0 mg/kg/injection, schedule: Q04DX003 (ip), vehicle: Klucel (hydroxypropylcellulose) (HPC)) 101 % of control; (dose: 400.0 mg/kg/injection, schedule: Q04DX003 (ip), vehicle: Klucel (hydroxypropylcellulose) (HPC)) 90 % of control.
Turning to `Clc1ccc(/C=C/c2ccc(Cl)cc2)cc1`, the T/C runs as follows: (dose: 75.0 mg/kg/injection, schedule: Q04DX003 (ip), vehicle: Klucel (hydroxypropylcellulose) (HPC)) 95 % of control; (dose: 150.0 mg/kg/injection, schedule: Q04DX003 (ip), vehicle: Klucel (hydroxypropylcellulose) (HPC)) 95 % of control; (dose: 300.0 mg/kg/injection, schedule: Q04DX003 (ip), vehicle: Klucel (hydroxypropylcellulose) (HPC)) 98 % of control.
On to `Oc1ccc(Cl)cc1C=Nc1ccc2c(c1)OCO2`, for which the T/C reads like this: under setting [5], 91 % of control; under setting [8], 88 % of control; (dose: 400.0 mg/kg/injection, schedule: Q04DX002 (ip), vehicle: saline with Tween-80) 91 % of control.
With `CCCCCCCCCCCCNC(=O)c1ccc[n+](C)c1`, the T/C reads like this: (dose: 6.25 mg/kg/injection, schedule: Q01DX009 (ip), vehicle: acetone) 95 % of control; (dose: 6.25 mg/kg/injection, schedule: Q04DX003 (ip), vehicle: saline) 91 % of control; (dose: 12.5 mg/kg/injection, schedule: Q01DX001 (ip), vehicle: saline) 105 % of control; (dose: 12.5 mg/kg/injection, schedule: Q01DX009 (ip), vehicle: acetone) 98 % of control; (dose: 12.5 mg/kg/injection, schedule: Q04DX003 (ip), vehicle: saline) 92 % of control and 103 % of control; (dose: 25.0 mg/kg/injection, schedule: Q01DX001 (ip), vehicle: saline) 104 % of control. The T/C (dose: 25.0 mg/kg/injection, schedule: Q01DX009 (ip), vehicle: acetone) was 95 % of control; the T/C (dose: 25.0 mg/kg/injection, schedule: Q04DX003 (ip), vehicle: saline) is 94 % of control and 91 % of control; the T/C (dose: 50.0 mg/kg/injection, schedule: Q04DX003 (ip), vehicle: saline) was 96 % of control.
In the case of `O=P(CCCCCCCCCCP(=O)(c1ccccc1)c1ccccc1)(c1ccccc1)c1ccccc1`, the T/C reads like this: under setting [6], 91 % of control; under setting [7], 92 % of control; under setting [9], 92 % of control.
On to `O=C(CF)[O][Sb]([O]C(=O)CF)([c]1ccccc1)([c]1ccccc1)[c]1ccccc1`, for which the T/C runs as follows: (dose: 5.0 mg/kg/injection, schedule: Q04DX003 (ip), vehicle: saline with Tween-80) 92 % of control; (dose: 10.0 mg/kg/injection, schedule: Q04DX003 (ip), vehicle: saline with Tween-80) 101 % of control; (dose: 20.0 mg/kg/injection, schedule: Q04DX003 (ip), vehicle: saline with Tween-80) 106 % of control.
With `C#CCNc1ccccc1`, the T/C by setting is: (dose: 100.0 mg/kg/injection, schedule: Q04DX002 (sc), vehicle: olive oil, sesame oil, peanut oil) 102 % of control; (dose: 200.0 mg/kg/injection, schedule: Q04DX002 (sc), vehicle: olive oil, sesame oil, peanut oil) 102 % of control; (dose: 400.0 mg/kg/injection, schedule: Q04DX002 (sc), vehicle: olive oil, sesame oil, peanut oil) 109 % of control.
Turning to `NC(=O)C1CCNCC1`, the T/C by setting is: (dose: 100.0 mg/kg/injection, schedule: Q04DX002 (ip), vehicle: saline) 108 % of control; (dose: 200.0 mg/kg/injection, schedule: Q04DX002 (ip), vehicle: saline) 102 % of control; (dose: 400.0 mg/kg/injection, schedule: Q04DX002 (ip), vehicle: saline) 115 % of control.
In the case of `FC(F)(F)C(c1ccc(Cl)cc1)c1ccc(Cl)cc1`, the T/C was 105 % of control (dose: 10.0 mg/kg/injection, schedule: Q01DX009 (ip), vehicle: saline with Tween-80); 89 % of control (dose: 20.0 mg/kg/injection, schedule: Q01DX009 (ip), vehicle: saline with Tween-80); 97 % of control (dose: 40.0 mg/kg/injection, schedule: Q01DX009 (ip), vehicle: saline with Tween-80); 103 % of control under setting [10]; 97 % of control under setting [6]; 97 % of control (dose: 100.0 mg/kg/injection, schedule: Q01DX009 (ip), vehicle: other). Moreover, the T/C is, setting by setting: under setting [1], 103 % of control; under setting [7], 97 % of control; under setting [2], 102 % of control; under setting [9], 103 % of control; under setting [3], 100 % of control.
For `NCCSSSSCCN`, the T/C by setting is: under setting [6], 96 % of control; under setting [7], 105 % of control.
On the same counts, the results for `Cc1cccc(C)c1N(C=O)N=O` are 110 % of control and 104 % of control.
As for `c1ccc(C2=NC2c2ccccc2)cc1` (centres undefined), the T/C was 97 % of control (dose: 25.0 mg/kg/injection, schedule: Q01DX001 (ip), vehicle: Klucel (hydroxypropylcellulose) (HPC)); 96 % of control (dose: 50.0 mg/kg/injection, schedule: Q01DX001 (ip), vehicle: Klucel (hydroxypropylcellulose) (HPC)); 105 % of control (dose: 100.0 mg/kg/injection, schedule: Q01DX001 (ip), vehicle: Klucel (hydroxypropylcellulose) (HPC)).
Take `CS(=O)(=O)OCCNC[C@@H](O)[C@@H](O)CNCCOS(C)(=O)=O`: the T/C by setting is: (dose: 0.8 mg/kg/injection, schedule: Q01DX001 (ip), vehicle: saline) 101 % of control; (dose: 1.4 mg/kg/injection, schedule: Q01DX001 (ip), vehicle: saline) 112 % of control and 121 % of control; (dose: 2.3 mg/kg/injection, schedule: Q01DX001 (ip), vehicle: saline) 112 % of control and 123 % of control; (dose: 6.5 mg/kg/injection, schedule: Q01DX001 (ip), vehicle: saline) 122 % of control; (dose: 18.0 mg/kg/injection, schedule: Q01DX001 (ip), vehicle: saline) 161 % of control; (dose: 30.0 mg/kg/injection, schedule: Q01DX001 (ip), vehicle: saline) 151 % of control and 186 % of control. For the same compound, the T/C reads like this: under setting [10], 207 % of control; under setting [6], 108 % of control.
